# Test results as given in ChEMBL document CHEMBL4334508, “Oleanolic Acid Derivatives as Potential Inhibitors of HIV-1 Protease” (J Nat Prod, 2019).
# Biological target: Protease (Human immunodeficiency virus 1, UniProt Q9YQ12)
# Assay: Inhibition of HIV1 protease expressed in Escherichia coli using Abz-Ala-Arg-Val-Nle-Tyr(NO2)-Glu-Ala-Nle-NH2 peptide as substrate by FRET assay
# Protease, sequence (Q9YQ12 whole entry): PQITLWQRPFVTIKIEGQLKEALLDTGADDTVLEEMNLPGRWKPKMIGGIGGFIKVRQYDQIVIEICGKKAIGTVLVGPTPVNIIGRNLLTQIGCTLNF
row,IC50,Structure (SMILES)
1,> 50 µM,CCC(=O)O[C@H]1CC[C@]2(C)[C@H]3CC=C4[C@@H]5CC(C)(C)CC[C@]5(C(=O)NCCCCCC(=O)N[C@H](C(=O)O)C(C)C)CC[C@@]4(C)[C@]3(C)CC[C@H]2C1(C)C
2,> 50 µM,CC(C)[C@H](NC(=O)CCCNC(=O)[C@]12CCC(C)(C)C[C@H]1C1=CC[C@@H]3[C@@]4(C)CC[C@H](OC(=O)c5ccccc5)C(C)(C)[C@@H]4CC[C@@]3(C)[C@]1(C)CC2)C(=O)O
3,> 50 µM,CC(=O)O[C@H]1CC[C@]2(C)[C@H]3CC=C4[C@@H]5CC(C)(C)CC[C@]5(C(=O)NCCCCCC(=O)O)CC[C@@]4(C)[C@]3(C)CC[C@H]2C1(C)C
4,> 50 µM,CCCCCC(=O)O[C@H]1CC[C@]2(C)[C@H]3CC=C4[C@@H]5CC(C)(C)CC[C@]5(C(=O)NCCCC(=O)N[C@H](C(=O)O)C(C)C)CC[C@@]4(C)[C@]3(C)CC[C@H]2C1(C)C
5,> 50 µM,CC(=O)O[C@H]1CC[C@]2(C)[C@H]3CC=C4[C@@H]5CC(C)(C)CC[C@]5(C(=O)NCCCC(=O)N[C@H](C(=O)O)C(C)C)CC[C@@]4(C)[C@]3(C)CC[C@H]2C1(C)C
6,47.1 µM,C[C@H](NC(=O)CCCNC(=O)[C@]12CCC(C)(C)C[C@H]1C1=CC[C@@H]3[C@@]4(C)CC[C@H](OC(=O)c5ccccc5)C(C)(C)[C@@H]4CC[C@@]3(C)[C@]1(C)CC2)C(=O)O
7,> 50 µM,CCC(=O)O[C@H]1CC[C@]2(C)[C@H]3CC=C4[C@@H]5CC(C)(C)CC[C@]5(C(=O)NCCCCCCCCCCC(=O)O)CC[C@@]4(C)[C@]3(C)CC[C@H]2C1(C)C
8,1.2 µM,CC(C)[C@H](NC(=O)CCCCCCCCCCNC(=O)[C@]12CCC(C)(C)C[C@H]1C1=CC[C@@H]3[C@@]4(C)CC[C@H](OC(=O)c5ccccc5C(=O)O)C(C)(C)[C@@H]4CC[C@@]3(C)[C@]1(C)CC2)C(=O)O
9,1 µM,C[C@H](NC(=O)CCCCCCCCCCNC(=O)[C@]12CCC(C)(C)C[C@H]1C1=CC[C@@H]3[C@@]4(C)CC[C@H](OC(=O)c5ccccc5C(=O)O)C(C)(C)[C@@H]4CC[C@@]3(C)[C@]1(C)CC2)C(=O)O
10,40 µM,CCCC(=O)O[C@H]1CC[C@]2(C)[C@H]3CC=C4[C@@H]5CC(C)(C)CC[C@]5(C(=O)NCCCCCC(=O)N[C@@H](C)C(=O)O)CC[C@@]4(C)[C@]3(C)CC[C@H]2C1(C)C
11,47.1 µM,CC(=O)O[C@H]1CC[C@]2(C)[C@H]3CC=C4[C@@H]5CC(C)(C)CC[C@]5(C(=O)NCCCCCC(=O)N[C@@H](C)C(=O)O)CC[C@@]4(C)[C@]3(C)CC[C@H]2C1(C)C
12,> 50 µM,CC1(C)CC[C@]2(C(=O)NCCCCCCCCCCC(=O)O)CC[C@]3(C)C(=CC[C@@H]4[C@@]5(C)CC[C@H](OC(=O)CCC(=O)O)C(C)(C)[C@@H]5CC[C@]43C)[C@@H]2C1
13,> 50 µM,CCCCCCCCCCCC(=O)O[C@H]1CC[C@]2(C)[C@H]3CC=C4[C@@H]5CC(C)(C)CC[C@]5(C(=O)NCCCC(=O)N[C@@H](C)C(=O)O)CC[C@@]4(C)[C@]3(C)CC[C@H]2C1(C)C
14,> 50 µM,C[C@H](NC(=O)CCCCCCCCCCNC(=O)[C@]12CCC(C)(C)C[C@H]1C1=CC[C@@H]3[C@@]4(C)CC[C@H](OC(=O)CC(C)(C)CC(=O)O)C(C)(C)[C@@H]4CC[C@@]3(C)[C@]1(C)CC2)C(=O)O
15,17.9 µM,CC(C)[C@H](NC(=O)CCCCCNC(=O)[C@]12CCC(C)(C)C[C@H]1C1=CC[C@@H]3[C@@]4(C)CC[C@H](OC(=O)CCCC(=O)O)C(C)(C)[C@@H]4CC[C@@]3(C)[C@]1(C)CC2)C(=O)O
16,> 50 µM,CCCCCC(=O)O[C@H]1CC[C@]2(C)[C@H]3CC=C4[C@@H]5CC(C)(C)CC[C@]5(C(=O)NCCCC(=O)NCC(=O)O)CC[C@@]4(C)[C@]3(C)CC[C@H]2C1(C)C
17,> 50 µM,CCCCCC(=O)O[C@H]1CC[C@]2(C)[C@H]3CC=C4[C@@H]5CC(C)(C)CC[C@]5(C(=O)NCCCCCCCCCCC(=O)NCC(=O)O)CC[C@@]4(C)[C@]3(C)CC[C@H]2C1(C)C
18,> 50 µM,CCCCCC(=O)O[C@H]1CC[C@]2(C)[C@H]3CC=C4[C@@H]5CC(C)(C)CC[C@]5(C(=O)NCCCCCC(=O)N[C@@H](C)C(=O)O)CC[C@@]4(C)[C@]3(C)CC[C@H]2C1(C)C
19,> 50 µM,CCCCCCCCCCCC(=O)O[C@H]1CC[C@]2(C)[C@H]3CC=C4[C@@H]5CC(C)(C)CC[C@]5(C(=O)NCCCCCC(=O)NCC(=O)O)CC[C@@]4(C)[C@]3(C)CC[C@H]2C1(C)C
20,> 50 µM,CC1(C)CC[C@]2(C(=O)NCCCCCCCCCCC(=O)NCC(=O)O)CC[C@]3(C)C(=CC[C@@H]4[C@@]5(C)CC[C@H](OC(=O)c6ccccc6)C(C)(C)[C@@H]5CC[C@]43C)[C@@H]2C1
21,> 50 µM,CC(=O)O[C@H]1CC[C@]2(C)[C@H]3CC=C4[C@@H]5CC(C)(C)CC[C@]5(C(=O)NCCCCCCCCCCC(=O)N[C@@H](C)C(=O)O)CC[C@@]4(C)[C@]3(C)CC[C@H]2C1(C)C
22,> 50 µM,CCC(=O)O[C@H]1CC[C@]2(C)[C@H]3CC=C4[C@@H]5CC(C)(C)CC[C@]5(C(=O)NCCCC(=O)N[C@H](C(=O)O)C(C)C)CC[C@@]4(C)[C@]3(C)CC[C@H]2C1(C)C

row,IC50,Structure (SMILES)
1,1 µM,CC1(C)CC[C@]2(C(=O)NCCCCCC(=O)O)CC[C@]3(C)C(=CC[C@@H]4[C@@]5(C)CC[C@H](OC(=O)CCCC(=O)O)C(C)(C)[C@@H]5CC[C@]43C)[C@@H]2C1
2,> 50 µM,CCCCCC(=O)O[C@H]1CC[C@]2(C)[C@H]3CC=C4[C@@H]5CC(C)(C)CC[C@]5(C(=O)NCCCCCC(=O)O)CC[C@@]4(C)[C@]3(C)CC[C@H]2C1(C)C
3,> 50 µM,CCCC(=O)O[C@H]1CC[C@]2(C)[C@H]3CC=C4[C@@H]5CC(C)(C)CC[C@]5(C(=O)NCCCC(=O)O)CC[C@@]4(C)[C@]3(C)CC[C@H]2C1(C)C
4,> 50 µM,CC(C)[C@H](NC(=O)CCCCCCCCCCNC(=O)[C@]12CCC(C)(C)C[C@H]1C1=CC[C@@H]3[C@@]4(C)CC[C@H](OC(=O)CC(C)(C)CC(=O)O)C(C)(C)[C@@H]4CC[C@@]3(C)[C@]1(C)CC2)C(=O)O
5,> 50 µM,CCCC(=O)O[C@H]1CC[C@]2(C)[C@H]3CC=C4[C@@H]5CC(C)(C)CC[C@]5(C(=O)NCCCCCC(=O)N[C@H](C(=O)O)C(C)C)CC[C@@]4(C)[C@]3(C)CC[C@H]2C1(C)C
6,> 50 µM,C[C@H](NC(=O)CCCCCCCCCCNC(=O)[C@]12CCC(C)(C)C[C@H]1C1=CC[C@@H]3[C@@]4(C)CC[C@H](OC(=O)CCC(=O)O)C(C)(C)[C@@H]4CC[C@@]3(C)[C@]1(C)CC2)C(=O)O
7,> 50 µM,CCCCCC(=O)O[C@H]1CC[C@]2(C)[C@H]3CC=C4[C@@H]5CC(C)(C)CC[C@]5(C(=O)NCCCCCC(=O)N[C@H](C(=O)O)C(C)C)CC[C@@]4(C)[C@]3(C)CC[C@H]2C1(C)C
8,> 50 µM,CCCCCCCCCCCC(=O)O[C@H]1CC[C@]2(C)[C@H]3CC=C4[C@@H]5CC(C)(C)CC[C@]5(C(=O)NCCCCCC(=O)O)CC[C@@]4(C)[C@]3(C)CC[C@H]2C1(C)C
9,> 50 µM,CC1(C)CC[C@]2(C(=O)NCCCCCCCCCCC(=O)NCC(=O)O)CC[C@]3(C)C(=CC[C@@H]4[C@@]5(C)CC[C@H](OC(=O)CCCC(=O)O)C(C)(C)[C@@H]5CC[C@]43C)[C@@H]2C1
10,> 50 µM,CCCCCCCCCCCC(=O)O[C@H]1CC[C@]2(C)[C@H]3CC=C4[C@@H]5CC(C)(C)CC[C@]5(C(=O)NCCCCCCCCCCC(=O)N[C@@H](C)C(=O)O)CC[C@@]4(C)[C@]3(C)CC[C@H]2C1(C)C
11,> 50 µM,CCCCCCCCCCCC(=O)O[C@H]1CC[C@]2(C)[C@H]3CC=C4[C@@H]5CC(C)(C)CC[C@]5(C(=O)NCCCCCC(=O)N[C@@H](C)C(=O)O)CC[C@@]4(C)[C@]3(C)CC[C@H]2C1(C)C
12,> 50 µM,CC1(C)CC[C@]2(C(=O)NCCCCCCCCCCC(=O)O)CC[C@]3(C)C(=CC[C@@H]4[C@@]5(C)CC[C@H](OC(=O)CCCC(=O)O)C(C)(C)[C@@H]5CC[C@]43C)[C@@H]2C1
13,> 50 µM,CC1(C)CC[C@]2(C(=O)NCCCCCC(=O)NCC(=O)O)CC[C@]3(C)C(=CC[C@@H]4[C@@]5(C)CC[C@H](OC(=O)c6ccccc6)C(C)(C)[C@@H]5CC[C@]43C)[C@@H]2C1
14,> 50 µM,CCCCCC(=O)O[C@H]1CC[C@]2(C)[C@H]3CC=C4[C@@H]5CC(C)(C)CC[C@]5(C(=O)NCCCC(=O)O)CC[C@@]4(C)[C@]3(C)CC[C@H]2C1(C)C
15,> 50 µM,C[C@H](NC(=O)CCCCCCCCCCNC(=O)[C@]12CCC(C)(C)C[C@H]1C1=CC[C@@H]3[C@@]4(C)CC[C@H](OC(=O)CCCC(=O)O)C(C)(C)[C@@H]4CC[C@@]3(C)[C@]1(C)CC2)C(=O)O
16,0.24 µM,CC(=O)N[C@H](C(=O)N[C@H](C(=O)N[C@@H](CC(C)C)[C@@H](O)CC(=O)N[C@@H](C)C(=O)N[C@@H](CC(C)C)[C@@H](O)CC(=O)O)C(C)C)C(C)C [ACETYLPEPSTATIN]
17,9.6 µM,CC(C)[C@H](NC(=O)CCCCCNC(=O)[C@]12CCC(C)(C)C[C@H]1C1=CC[C@@H]3[C@@]4(C)CC[C@H](OC(=O)CCC(=O)O)C(C)(C)[C@@H]4CC[C@@]3(C)[C@]1(C)CC2)C(=O)O
18,> 50 µM,CCCCCCCCCCCC(=O)O[C@H]1CC[C@]2(C)[C@H]3CC=C4[C@@H]5CC(C)(C)CC[C@]5(C(=O)NCCCC(=O)NCC(=O)O)CC[C@@]4(C)[C@]3(C)CC[C@H]2C1(C)C
19,> 50 µM,CC1(C)CC[C@]2(C(=O)NCCCC(=O)NCC(=O)O)CC[C@]3(C)C(=CC[C@@H]4[C@@]5(C)CC[C@H](OC(=O)CCCC(=O)O)C(C)(C)[C@@H]5CC[C@]43C)[C@@H]2C1
20,> 50 µM,CC(C)[C@H](NC(=O)CCCCCNC(=O)[C@]12CCC(C)(C)C[C@H]1C1=CC[C@@H]3[C@@]4(C)CC[C@H](OC(=O)c5ccccc5)C(C)(C)[C@@H]4CC[C@@]3(C)[C@]1(C)CC2)C(=O)O
21,38.8 µM,CC(C)(CC(=O)O)CC(=O)O[C@H]1CC[C@]2(C)[C@H]3CC=C4[C@@H]5CC(C)(C)CC[C@]5(C(=O)NCCCCCC(=O)NCC(=O)O)CC[C@@]4(C)[C@]3(C)CC[C@H]2C1(C)C
22,> 50 µM,CCCCCCCCCCCC(=O)O[C@H]1CC[C@]2(C)[C@H]3CC=C4[C@@H]5CC(C)(C)CC[C@]5(C(=O)NCCCC(=O)N[C@H](C(=O)O)C(C)C)CC[C@@]4(C)[C@]3(C)CC[C@H]2C1(C)C
